Experimental data published in PubChem BioAssay AID1963835 (Molecular Pharmacology Branch, DTP, NCI, 2024).
pIC50: −log10 of the molar value. “And” between values parts separate entries of the source, which are not always exact repeats. Equal entries are not always repeated.

Test system: 699152-130-R-J1-PDC complex spheroid viability
Experiment: Anticancer human tumor 699152-130-R-J1-PDC patient-derived pancreatic carcinoma cell line growth inhibition [POLQ]
Conditions: for viability, T/C: stronger effect = lower value
Method: Multicellular complex tumor spheroid response to Polymerase (POL) inhibitors (novobiocin, ART-558, RP6685) in combination with a variety of drugs and investigational agents in selected tumor cell lines
The POL inhibitors (novobiocin, ART-558, and RP6685) were evaluated both individually and in combination with standard of care and investigational anticancer small molecules within a complex spheroid model of solid tumors. . Complex spheroids include a stromal component modeled by human endothelial cells (HUVEC) and fibroblasts modeled by human mesenchymal stem cells (MSCs). The concentration ranges selected for each drug and investigational agent were based upon clinically achievable concentrations if the clinical Cmax of the agent was known.
Compounds. The drugs and investigational agents: novobiocin (NSC847541), ART-558 (NSC835418), RP-6685 (NSC848927), peposertib (NSC802822), ceralasertib (NSC780249), elimusertib (NSC800525), camonsertib (NSC841442), AZD-1390 (NSC803789), olaparib (NSC753686), talazoparib (NSC767125), rucaparib (NSC756644), sotorasib (NSC818433), MRTX-1133 (NSC836407), SN-38 (NSC673596), topotecan (NSC609699), epotoside (NSC141540), doxorubicin (NSC123127), gemcitabine (NSC613327), 5-fluorouracil (NSC19893), paclitaxel (NSC125973), vemurafenib (NSC761431), MSA-2 (NSC828583), SN-011 (NSC837082), adavosertib (NSC754352), prexasertib (NSC758257), carboplatin (NSC241240) and oxaliplatin (NSC266046), were obtained from the National Cancer Institute (NCI) Developmental Therapeutics Program Chemical Repository (21). The FDA-approved anticancer drug set is available from the Developmental Therapeutics Program at https://dtp.cancer.gov/organization/dscb/obtaining/. […] The stock solutions were prepared in dimethyl sulfoxide (DMSO, Sigma-Aldrich, St. Louis, MO, cat. D2650), except for the platinum compounds which were prepared in saline (Quality Biological, Gaithersburg, MD, cat. 114-055-101), at 800-fold the tested concentration and stored at -70 degrees C prior to their use. All drugs and investigational agents were tested over a range starting from a high concentration at or near the clinical Cmax and decreasing in half-log increments. If the clinical Cmax for an agent had not been determined, the highest concentration tested was 10 microM, except for SN-38, which was tested at a high concentration of 1 microM.
Cell Culture. All cells were maintained in an incubator at 37 degrees C and 5% CO2 with 95% humidity. The PDC lines were cultured according to standard operating procedures established by the NCI PDMR (https://pdmr.cancer.gov). Table 3 of the manuscript, lists the cell lines along with the number of the three cell types plated to form the mct-spheroids and media for tumor cell growth. After thawing, all PDC lines, except 997537-175-T-J1-PDC and 415267-285-R-J2-PDC, were cultured in Matrigel-coated flasks prepared with a working solution of 1X Ham's F-12 nutrient mix, without supplementation (Thermo Fisher Scientific, cat. 11765054), 100 U/mL penicillin-streptomycin (Thermo Fisher Scientific, cat. 15140122), and 2.5% Matrigel (Corning Inc., Corning, NY, cat. 354248) for the first three passages. The two PDC lines 997537-175-T-J1-PDC and 415267-285-R-J2-PDC were cultured on uncoated flasks. The 857933-349-R-J2-PDC line was cultured in 6C/Colon 1B media containing advanced DMEM/F-12 (Thermo Fisher Scientific, cat. 12634028), 10 mM HEPES (Thermo Fisher Scientific, cat. 15630080), 1X GlutaMAX supplement (Thermo Fisher Scientific, cat. 35050061), 0.1 mg/mL primocin (InvivoGen, San Diego, CA, cat. ant-pm-2), 10% defined fetal bovine serum, heat inactivated (HyClone Laboratories Inc., Logan, UT, cat. SH30070.03HI), 50% L-WRN conditioned media (ATCC, cat. CRL-3276), 1.25 mM N-Acetyl-L-cysteine (Sigma-Aldrich, cat. A9165), 10 mM nicotinamide (Sigma-Aldrich, cat. N0636), 1X B-27 supplement (Thermo Fisher Scientific, cat. 17504044), 1X N-2 supplement (Thermo Fisher Scientific, cat. […]

[1] = curve of first compound, second compound 0.0316 µM
[2] = curve of first compound, second compound 0.1 µM
[3] = curve of first compound, second compound 0.316 µM
[4] = curve of first compound, second compound 1 µM
[5] = curve of first compound, second compound 3.16 µM
[6] = curve of first compound, second compound 10 µM
[7] = second compound 0.0316 µM, first compound 0.0316 µM
[8] = second compound 0.0316 µM, first compound 0.1 µM
[9] = second compound 0.0316 µM, first compound 0.316 µM
[10] = second compound 0.0316 µM, first compound 1 µM
[11] = second compound 0.0316 µM, first compound 3.16 µM
[12] = second compound 0.0316 µM, first compound 10 µM
[13] = second compound 0.1 µM, first compound 0.0316 µM
[14] = second compound 0.1 µM, first compound 0.1 µM
[15] = second compound 0.1 µM, first compound 0.316 µM
[16] = second compound 0.1 µM, first compound 1 µM
[17] = second compound 0.1 µM, first compound 3.16 µM
[18] = second compound 0.1 µM, first compound 10 µM
[19] = second compound 0.316 µM, first compound 0.0316 µM
[20] = second compound 0.316 µM, first compound 0.1 µM
[21] = second compound 0.316 µM, first compound 0.316 µM
[22] = second compound 0.316 µM, first compound 1 µM
[23] = second compound 0.316 µM, first compound 3.16 µM
[24] = second compound 0.316 µM, first compound 10 µM
[25] = second compound 1 µM, first compound 0.0316 µM
[26] = second compound 1 µM, first compound 0.1 µM
[27] = second compound 1 µM, first compound 0.316 µM
[28] = second compound 1 µM, first compound 1 µM
[29] = second compound 1 µM, first compound 3.16 µM
[30] = second compound 1 µM, first compound 10 µM
[31] = second compound 3.16 µM, first compound 0.0316 µM
[32] = second compound 3.16 µM, first compound 0.1 µM
[33] = second compound 3.16 µM, first compound 0.316 µM
[34] = second compound 3.16 µM, first compound 1 µM
[35] = second compound 3.16 µM, first compound 3.16 µM
[36] = second compound 3.16 µM, first compound 10 µM
[37] = second compound 10 µM, first compound 0.0316 µM
[38] = second compound 10 µM, first compound 0.1 µM
[39] = second compound 10 µM, first compound 0.316 µM
[40] = second compound 10 µM, first compound 1 µM
[41] = second compound 10 µM, first compound 3.16 µM
[42] = second compound 10 µM, first compound 10 µM
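Also: spheroids exposed to agents for 7 days before viability reading.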
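For viability, T/C in this document: percent of DMSO vehicle control viability so 100% = vehicle and 0% = no viable signal.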

CC1COCCN1c1cc(C2(O)CC3CCC(C2)O3)c2cnn(-c3ccn[nH]3)c2n1 (stereo unspecified) + Nc1ccc(C#CCN(C(=O)Cc2ncc(C(F)(F)F)cc2C(F)(F)F)c2ccc(F)cc2)nn1
pIC50 [1]: 5.83
pIC50 [2]: 5.57
pIC50 [3]: 5.82
pIC50 [4]: 5.86
pIC50 [5]: 5.82
pIC50 [6]: 5.66
viability, T/C [7]: 85.6%
viability, T/C [8]: 81.3%
viability, T/C [9]: 60.7%
viability, T/C [10]: 56.8%
viability, T/C [11]: 42.5%
viability, T/C [12]: 35.1%
viability, T/C [13]: 86.6%
viability, T/C [14]: 79.1%
viability, T/C [15]: 68.1%
viability, T/C [16]: 61.3%
viability, T/C [17]: 48.6%
viability, T/C [18]: 36.2%
viability, T/C [19]: 94.9%
viability, T/C [20]: 85.7%
viability, T/C [21]: 66.8%
viability, T/C [22]: 53.6%
viability, T/C [23]: 44.8%
viability, T/C [24]: 35.9%
viability, T/C [25]: 104%
viability, T/C [26]: 83.5%
viability, T/C [27]: 67.2%
viability, T/C [28]: 53.2%
viability, T/C [29]: 42.5%
viability, T/C [30]: 30.6%
viability, T/C [31]: 100%
viability, T/C [32]: 84.6%
viability, T/C [33]: 65.5%
viability, T/C [34]: 51%
viability, T/C [35]: 48.9%
viability, T/C [36]: 40.3%
viability, T/C [37]: 104%
viability, T/C [38]: 90.9%
viability, T/C [39]: 65.2%
viability, T/C [40]: 56.8%
viability, T/C [41]: 51.5%
viability, T/C [42]: 37.1%

CCc1cc2c(N3CCc4c(cc(Cn5ccnc5)cc4-c4cn(C)nc4C(F)(F)F)C3=O)ccnc2c(OC)n1
viability, T/C (compound 0.0316 µM): 88.3% and 83.8% and 90.8%
viability, T/C (compound 0.1 µM): 81.6% and 90.7% and 76.9%
viability, T/C (compound 0.316 µM): 86.3% and 93.2% and 101%
viability, T/C (compound 1 µM): 102% and 81.5% and 103%
viability, T/C (compound 3.16 µM): 99.5% and 98.2% and 112%
viability, T/C (compound 10 µM): 89% and 94.7% and 88.3%
pIC50 (curve of compound): < 5.00

O=C(c1cc(Cc2n[nH]c(=O)c3ccccc23)ccc1F)N1CCN(C(=O)C2CC2)CC1 + COC1C(OC(N)=O)C(O)C(Oc2ccc3c(O)c(NC(=O)c4ccc(O)c(CC=C(C)C)c4)c(=O)oc3c2C)OC1(C)C
pIC50 [1]: > 7.50
pIC50 [2]: > 7.50
pIC50 [3]: > 7.50
pIC50 [4]: > 7.50
pIC50 [5]: > 7.50
pIC50 [6]: > 7.50
viability, T/C [7]: 38.8%
viability, T/C [8]: 37.8%
viability, T/C [9]: 35.3%
viability, T/C [10]: 40.3%
viability, T/C [11]: 35.7%
viability, T/C [12]: 34%
viability, T/C [13]: 42.7%
viability, T/C [14]: 37.2%
viability, T/C [15]: 38.5%
viability, T/C [16]: 43.9%
viability, T/C [17]: 37.2%
viability, T/C [18]: 29.8%
viability, T/C [19]: 40%
viability, T/C [20]: 41.5%
viability, T/C [21]: 40.6%
viability, T/C [22]: 36.5%
viability, T/C [23]: 33.6%
viability, T/C [24]: 32.3%
viability, T/C [25]: 41.6%
viability, T/C [26]: 39.7%
viability, T/C [27]: 36.9%
viability, T/C [28]: 37.4%
viability, T/C [29]: 39.6%
viability, T/C [30]: 35.1%
viability, T/C [31]: 39%
viability, T/C [32]: 42.9%
viability, T/C [33]: 41.3%
viability, T/C [34]: 40.7%
viability, T/C [35]: 36.8%
viability, T/C [36]: 36.9%
viability, T/C [37]: 38.3%
viability, T/C [38]: 36.2%
viability, T/C [39]: 36.2%
viability, T/C [40]: 40.2%
viability, T/C [41]: 42.9%
viability, T/C [42]: 31.1%
